This passage reports CLhep predicted, solubility and Papp A→B results from ChEMBL document CHEMBL3124860, “Fragment-based identification of amides derived from trans-2-(pyridin-3-yl)cyclopropanecarboxylic acid as potent inhibitors of human nicotinamide phosphoribosyltransferase (NAMPT)” (J Med Chem, 2014).

SMILES strings stand for the structures. In brackets after ≈: the same amount, converted by molar mass.

As a reminder, the solubility is how much of the substance goes into solution per volume. Lower therefore signals little dissolved substance. The term Papp A→B denotes the apparent permeability from the apical to the basolateral side of a cell layer.

The first data set in a line: Clearance in human liver microsomes at 1 uM up to 60 mins by LC-MS/MS analysis. The format is ADME.
Details: not given
Consider `O=C(Nc1ccc(S(=O)(=O)N2CC3CCC(C2)O3)cc1)[C@@H]1C[C@H]1c1cccnc1` (mixture of isomers), for which the CLhep predicted at 1 µM was 16 mL/min/kg.
The same measure, in the same setting: as for `O=C(Nc1ccc(S(=O)(=O)c2ccccc2)cc1)[C@@H]1C[C@H]1c1ccncc1` (racemic), the figure is 9 mL/min/kg.
In the case of `CC(C)(C)OC(=O)N1CC2(CCN(C(=O)[C@H]3C[C@@H]3c3cccnc3)C2)C1` (relative stereo), the CLhep predicted at 1 µM is 10 mL/min/kg.
The same measure, in the same setting: then `O=C(NCc1ccc(S(=O)(=O)c2ccccc2)cc1)[C@@H]1C[C@H]1c1cccnc1` (racemic), with 15 mL/min/kg; and `CCCn1cc(S(=O)(=O)c2ccc(NC(=O)[C@@H]3C[C@H]3c3cccnc3)cc2)cn1` (racemic), with 12 mL/min/kg; and `CC(C)n1cc(S(=O)(=O)c2ccc(NC(=O)[C@H]3C[C@@H]3c3cccnc3)cc2)cn1`, with 11 mL/min/kg.
Same read-out and setting: as for `CS(=O)(=O)c1cccc(S(=O)(=O)c2ccc(NC(=O)[C@@H]3C[C@H]3c3cccnc3)cc2)c1` (racemic), the figure is 9 mL/min/kg; as for `O=C(Nc1ccc(S(=O)(=O)N2CCOCC2)cc1)[C@@H]1C[C@H]1c1cccnc1` (racemic), 13 mL/min/kg.
Same read-out and setting: then `O=C(NCCCCC1CCN(C(=O)c2ccccc2)CC1)[C@@H]1C[C@H]1c1cccnc1` (racemic), with 19 mL/min/kg; and `Cc1ccc(S(=O)(=O)c2ccc(NC(=O)[C@@H]3C[C@H]3c3cccnc3)cc2)cn1` (racemic), with 10 mL/min/kg.
On to `CC(C)(O)Cn1cc(S(=O)(=O)c2ccc(NC(=O)[C@@H]3C[C@H]3c3cccnc3)cc2)cn1` (racemic), for which the CLhep predicted at 1 µM was 3 mL/min/kg.
Regarding `O=C(Nc1ccc(S(=O)(=O)C2CCOCC2)cc1)[C@@H]1C[C@H]1c1cccnc1` (racemic), the CLhep predicted at 1 µM is 13 mL/min/kg.
The same measure, in the same setting: as for `O=C(Nc1ccc(S(=O)(=O)c2cccc(OC(F)(F)F)c2)cc1)[C@@H]1C[C@H]1c1cccnc1` (racemic), the figure is 10 mL/min/kg; as for `O=C(Nc1ccc(S(=O)(=O)c2cccc(C(F)(F)F)c2)cc1)[C@@H]1C[C@H]1c1cccnc1` (racemic), 10 mL/min/kg; as for `O=C(NCc1ccc(S(=O)(=O)c2ccccc2)cc1)[C@@H]1C[C@H]1c1ccncc1` (racemic), 9 mL/min/kg.
Still for that read-out and setting: then `Nc1ccc([C@@H]2C[C@H]2C(=O)NCc2ccc(S(=O)(=O)c3ccccc3)cc2)cn1` (racemic), with 9 mL/min/kg; and `O=C(Nc1ccc(S(=O)(=O)c2cnn(C3CCOCC3)c2)cc1)[C@@H]1C[C@H]1c1cccnc1` (racemic), with 15 mL/min/kg.

A further data set is described as follows: physchem. As to conditions: buffer.
Consider `O=C(Nc1ccc(S(=O)(=O)c2ccccc2)cc1)[C@@H]1C[C@H]1c1ccncc1` (racemic), for which the concentration in solution (solubility at 24 h) came to 1 µM (≈ 0.378 µg/mL).
Turning to `CC(C)(C)OC(=O)N1CC2(CCN(C(=O)[C@H]3C[C@@H]3c3cccnc3)C2)C1` (relative stereo), the solubility at 24 h was 133 µM (≈ 47.5 µg/mL).
As to `O=C(NCc1ccc(S(=O)(=O)c2ccccc2)cc1)[C@@H]1C[C@H]1c1cccnc1` (racemic), the solubility at 24 h was 15 µM (≈ 5.89 µg/mL).
Still for that read-out and setting: then `CCCn1cc(S(=O)(=O)c2ccc(NC(=O)[C@@H]3C[C@H]3c3cccnc3)cc2)cn1` (racemic), with 48 µM (≈ 19.7 µg/mL); and `CC(C)n1cc(S(=O)(=O)c2ccc(NC(=O)[C@H]3C[C@@H]3c3cccnc3)cc2)cn1`, with 77 µM (≈ 31.6 µg/mL).
On the same count and under the same terms, as for `CS(=O)(=O)c1cccc(S(=O)(=O)c2ccc(NC(=O)[C@@H]3C[C@H]3c3cccnc3)cc2)c1` (racemic), the figure is 1 µM (≈ 0.457 µg/mL); as for `O=C(Nc1ccc(S(=O)(=O)N2CCOCC2)cc1)[C@@H]1C[C@H]1c1cccnc1` (racemic), 88 µM (≈ 34.1 µg/mL); as for `O=C(NCCCCC1CCN(C(=O)c2ccccc2)CC1)[C@@H]1C[C@H]1c1cccnc1` (racemic), 223 µM (≈ 90.4 µg/mL).
Same read-out and setting: as for `Cc1ccc(S(=O)(=O)c2ccc(NC(=O)[C@@H]3C[C@H]3c3cccnc3)cc2)cn1` (racemic), the figure is 6 µM (≈ 2.36 µg/mL); as for `CC(C)(O)Cn1cc(S(=O)(=O)c2ccc(NC(=O)[C@@H]3C[C@H]3c3cccnc3)cc2)cn1` (racemic), 155 µM (≈ 68.3 µg/mL); as for `O=C(Nc1ccc(S(=O)(=O)C2CCOCC2)cc1)[C@@H]1C[C@H]1c1cccnc1` (racemic), 93 µM (≈ 35.9 µg/mL).
The compound `O=C(Nc1ccc(S(=O)(=O)c2cccc(OC(F)(F)F)c2)cc1)[C@@H]1C[C@H]1c1cccnc1` (racemic) showed a solubility at 24 h of 1 µM (≈ 0.462 µg/mL).
Same read-out and setting: then `O=C(Nc1ccc(S(=O)(=O)c2cccc(C(F)(F)F)c2)cc1)[C@@H]1C[C@H]1c1cccnc1` (racemic), with 1 µM (≈ 0.446 µg/mL); and `O=C(NCc1ccc(S(=O)(=O)c2ccccc2)cc1)[C@@H]1C[C@H]1c1ccncc1` (racemic), with 59 µM (≈ 23.2 µg/mL); and `Nc1ccc([C@@H]2C[C@H]2C(=O)NCc2ccc(S(=O)(=O)c3ccccc3)cc2)cn1` (racemic), with 7 µM (≈ 2.85 µg/mL).

Assay in the next data set: not given
As to conditions: buffer, 24 h.
For the compound `O=C(Nc1ccc(S(=O)(=O)c2ccccc2)cc1)[C@@H]1C[C@H]1c1cccnc1` (racemic), the solubility came out at 20 µM (≈ 7.57 µg/mL). This counts as double-digit micromolar.
The same measure, in the same setting: as for `CC(C)n1cc(S(=O)(=O)c2ccc(NC(=O)[C@@H]3C[C@H]3c3cccnc3)cc2)cn1` (racemic), the figure is 66 µM (≈ 27.1 µg/mL).

The nature of another data set: in vitro. Particulars: dog, MDCK.
`O=C(Nc1ccc(S(=O)(=O)c2ccccc2)cc1)[C@@H]1C[C@H]1c1cccnc1` (racemic): the Papp A→B at 10 µM turned out to be 24 ×10⁻⁶ cm/s.
As to `CC(C)n1cc(S(=O)(=O)c2ccc(NC(=O)[C@@H]3C[C@H]3c3cccnc3)cc2)cn1` (racemic), the Papp A→B at 10 µM was 10 ×10⁻⁶ cm/s.
Same read-out and setting: as for `CCCn1cc(S(=O)(=O)c2ccc(NC(=O)[C@@H]3C[C@H]3c3cccnc3)cc2)cn1` (racemic), the figure is 11.5 ×10⁻⁶ cm/s; as for `CC(C)n1cc(S(=O)(=O)c2ccc(NC(=O)[C@H]3C[C@@H]3c3cccnc3)cc2)cn1`, 9.7 ×10⁻⁶ cm/s.
Still for that read-out and setting: then `CS(=O)(=O)c1cccc(S(=O)(=O)c2ccc(NC(=O)[C@@H]3C[C@H]3c3cccnc3)cc2)c1` (racemic), with 2.7 ×10⁻⁶ cm/s; and `O=C(Nc1ccc(S(=O)(=O)c2cccc(OC(F)(F)F)c2)cc1)[C@@H]1C[C@H]1c1cccnc1` (racemic), with 7.4 ×10⁻⁶ cm/s.

Another data set is described as follows: Clearance in CD-1 mouse liver microsomes at 1 uM up to 60 mins by LC-MS/MS analysis. The format is ADME, Microsome.
Details: not given
(Liver microsomes are a subcellular fraction often used to study metabolism.)
Turning to `O=C(Nc1ccc(S(=O)(=O)c2ccccc2)cc1)[C@@H]1C[C@H]1c1cccnc1` (racemic), the CLhep predicted at 1 µM was 76 mL/min/kg.
As for `CC(C)n1cc(S(=O)(=O)c2ccc(NC(=O)[C@@H]3C[C@H]3c3cccnc3)cc2)cn1` (racemic), the CLhep predicted at 1 µM was 75 mL/min/kg.
Still for that read-out and setting: as for `CCCn1cc(S(=O)(=O)c2ccc(NC(=O)[C@@H]3C[C@H]3c3cccnc3)cc2)cn1` (racemic), the figure is 75 mL/min/kg.
Still for that read-out and setting: as for `CC(C)n1cc(S(=O)(=O)c2ccc(NC(=O)[C@H]3C[C@@H]3c3cccnc3)cc2)cn1`, the figure is 80 mL/min/kg; as for `CS(=O)(=O)c1cccc(S(=O)(=O)c2ccc(NC(=O)[C@@H]3C[C@H]3c3cccnc3)cc2)c1` (racemic), 74 mL/min/kg.
On the same count and under the same terms, as for `O=C(Nc1ccc(S(=O)(=O)c2cccc(OC(F)(F)F)c2)cc1)[C@@H]1C[C@H]1c1cccnc1` (racemic), the figure is 69 mL/min/kg; as for `O=C(Nc1ccc(S(=O)(=O)c2cnn(C3CCOCC3)c2)cc1)[C@@H]1C[C@H]1c1cccnc1` (racemic), 77 mL/min/kg.

A further data set can be described thus: Clearance in CD-1 mouse hepatocytes at 1 uM up to 3 hrs by LC-MS/MS analysis. It is filed as ADME, cell-based, Hepatocyte.
Details: not given
On to `O=C(Nc1ccc(S(=O)(=O)c2ccccc2)cc1)[C@@H]1C[C@H]1c1cccnc1` (racemic), for which the CLhep predicted at 1 µM is 63 mL/min/kg.
`CC(C)n1cc(S(=O)(=O)c2ccc(NC(=O)[C@@H]3C[C@H]3c3cccnc3)cc2)cn1` (racemic): the CLhep predicted at 1 µM is 60 mL/min/kg.
On the same count and under the same terms, then `CCCn1cc(S(=O)(=O)c2ccc(NC(=O)[C@@H]3C[C@H]3c3cccnc3)cc2)cn1` (racemic), with 59 mL/min/kg; and `CC(C)n1cc(S(=O)(=O)c2ccc(NC(=O)[C@H]3C[C@@H]3c3cccnc3)cc2)cn1`, with 76 mL/min/kg; and `CS(=O)(=O)c1cccc(S(=O)(=O)c2ccc(NC(=O)[C@@H]3C[C@H]3c3cccnc3)cc2)c1` (racemic), with 54 mL/min/kg.
Same read-out and setting: as for `O=C(Nc1ccc(S(=O)(=O)c2cccc(OC(F)(F)F)c2)cc1)[C@@H]1C[C@H]1c1cccnc1` (racemic), the figure is 49 mL/min/kg.
`O=C(Nc1ccc(S(=O)(=O)c2cnn(C3CCOCC3)c2)cc1)[C@@H]1C[C@H]1c1cccnc1` (racemic): the CLhep predicted at 1 µM is 51 mL/min/kg.
